In assay [1] the test system is PANC-1 human pancreatic carcinoma cell line. Briefly: cells. The following applies: Homo sapiens, PANC-1, 72 h. Here is the method: (§1) a. […] Briefly, cells were harvested and seeded in 96 well microtiter plates at a density of 5,000 cells in 150 μL of culture medium and incubated for 24 hours in drug-free medium before treatment with vehicle alone or test compounds for 72 h.
(§2) The cytotoxic effect was measured by the MTT reduction assay, in which 3-(4,5-Dimethylthiazol-2-yl)-2,5-diphenyltetrazolium bromide, a tetrazole, which is reduced to purple formazan in the mitochondria of living cells, was used. MTT (50 μL of 1 mg/mL stock solution) was added to the wells and incubated for 8 hours at 37° C. until formazan crystals were formed. After gently removing the culture medium, DMSO was added to dissolve the insoluble purple formazan product into a colored solution. […] Results were expressed as percentage of control cell growth.
(§3) b. In a second set of assays, A549 human tumor cells were incubated with PM01183 in combination with each of the agents mentioned above.
(§4) As a visual aid, response values were plotted on a scatter plot with dose ratios given on the x-axis and % response values on the y-axis. […] In cases where response values at the two endpoints were approximately equivalent, points lying above or below this predicted line of additivity could be interpreted as representing antagonistic or synergistic drug interaction, respectively.
(§5) Additional serial dilutions were prepared in serum-free culture medium to achieve a final 4× concentration. Aliquots of 50 μL of each diluted compound were added per well.
PANC-1 was the human pancreatic carcinoma cell line selected for this assay.

Assay [2] relates to PC-3 human prostate cancer cell line. Briefly: cells. The following applies: Homo sapiens, PC-3, 72 h. Here is the method: as §1, §2, §3, §4, §5
PC-3 was the human prostate adenocarcinome cell line selected for this assay.

For assay [3], the system named is HepG2 human hepatocellular liver carcinoma cell line. Briefly: MTT cytotoxicity assay in HepG2 cells: IC50 of single agents and combinations with PM01183. It counts as cell-based. The following applies: Homo sapiens, HepG2, 72 h. Here is the method: as §1, §2, §3, §4, §5
HepG2 was the human hepatocellular liver carcinoma cell line selected for this assay.
(In general: Tetrazolium dyes change colour on reduction, which living cells bring about.)

The test system of assay [4] is SK-MEL-2 human melanoma cell line. Briefly: cells. The following applies: Homo sapiens, SK-MEL-2, 72 h. How it is done: as §1, §2, §3, §4, §5
SK-MEL-2 was the human melanoma cell line selected for this assay.

Assay [5] concerns U87-MG human glioblastoma cell line. Briefly: cells. The following applies: Homo sapiens, U-87 MG, 72 h. How it is done:
as §1, §2, §3, §4, §5
U87-MG was the human glioblastoma cell line selected for this assay.

In assay [6] the test system is HT-29 human colon adenocarcinoma cell line. Briefly: cells. The following applies: Homo sapiens, HT-29, 72 h. Here is the method: as §1, §2, §3, §4, §5
HT-29 was the human colon adenocarcinoma cell line selected for this assay.

Assay [7] relates to RXF-393 human kidney carcinoma cell line. Briefly: cells. The following applies: Homo sapiens, RXF 393, 72 h. Here is the method:
as §1, §2, §3, §4, §5

Assay [8] deals with MDA-MB-231 human breast adenocarcinoma cell line. Briefly: cells. The following applies: Homo sapiens, MDA-MB-231, 72 h. How it is done: as §1, §2, §3, §4, §5
For assay [9], the system named is HGC-27 human gastric carcinoma cell line. Briefly: cells. The following applies: Homo sapiens, HGC-27, 72 h. Here is the method: as §1, §2, §3, §4, §5
HGC-27 was the human gastric carcinoma cell line selected for this assay.

For assay [10], the system named is IGROV-1 human ovarian adenocarcinoma cell line. Briefly: cells. The following applies: Homo sapiens, IGROV-1, 72 h. Here is the method:
as §1, §2, §3, §4, §5
IGROV-1 was the human ovarian adenocarcinoma cell line selected for this assay.

Assay [11] concerns A549 human lung carcinoma cell line. Briefly: MTT cytotoxicity assay in A549 cells: IC50 of single agents and combinations with PM01183. The following applies: Homo sapiens, A549, 72 h. It counts as cell-based. Here is the method: as §5
A549 was the human lung carcinoma cell line selected for this assay.
as §1, §2, §3, §4

Assay [12] has as its system HGC-27 tumors. Briefly: Human gastric tumor xenografts (HGC-27) in athymic nude mice, tumor volume % T/C. The format is in vivo. How it is done:
Female athymic nude mice (Harlan Laboratories Models, S.L. (Barcelona, Spain) were utilized for all experiments. Animals were housed in individually ventilated cages, up to ten per cage in a 12-hour light-dark cycle at 21-23° C. and 40-60% humidity. The mice were allowed free access to irradiated standard rodent diet and sterilized water. Animals were acclimated for at least 5 days prior to tumor implantation with a tumor cell suspension.
HGC-27 cells were grown at 37° C. with 5% CO2 in Iscove's modified Dulbeco's medium (IDMD).
PM01183 was provided in the form of vials of lyophilized PM01183 cake which was reconstituted with water for infusion to a concentration of 0.2 mg/mL. The PM01183 stock solution was further diluted in 5% glucose solution for injection to the dosing formulation concentrations. Cisplatin and 5-fluorouracil were provided as solutions prepared by diluting the product with 0.9% saline solution for injection to the target final concentration.
Dose level groups were administered either as single agents or in combination.
Comparison of the median tumor volume in the treatment groups (T) to the median tumor volume in the control group (T/C×100%) was used for evaluation of the antitumor efficacy.

[13] abbreviates: 5-fluorouracil 12.5 mg/kg iv days 0,7.
The mark [14] stands for this setting: 5-fluorouracil 37.5 mg/kg iv days 0,7.
Setting [15] is: 5-fluorouracil 50.0 mg/kg iv days 0,7.

As for `CCc1c2c(nc3ccc(OC(=O)N4CCC(N5CCCCC5)CC4)cc13)-c1cc3c(c(=O)n1C2)COC(=O)[C@]3(O)CC` [Irinotecan, irinotecan], the IC50 in assay [1] amounted to 90 µM; in assay [2], 70 µM; in assay [3], 1 µM; in assay [4] it was 18 µM; in assay [5] it was 7.54 µM; in [6], 9 µM. Also, the IC50 in [7] worked out at 14 µM; in [8], 8.5 µM; in assay [9], 4 µM; in assay [10] it was 10 µM.

For the molecule `O=c1[nH]cc(F)c(=O)[nH]1` [5-FU, 5-fluorouracil], the IC50 in assay [2] was determined as 1000 µM; in assay [3], 4.5 µM; in [4], 700 µM; in [5] it was 1000 µM; in assay [11], 92.3 µM; in assay [6], 9 µM. For the same molecule, the IC50 in [7] is 300 µM; in [8] it was 90 µM; in assay [9], 10 µM; in assay [10] it was 90 µM. Further, the figures for the “% T/C on day 0” value in assay [12] (setting [13]), in assay [12] (setting [14]) and in assay [12] (setting [15]) were 100.7%, 99.4% and 100.3%, respectively. Also, the “% T/C on day 2” value was determined as 81.7% in [12] (setting [13]), 86.9% in assay [12] (setting [14]) and 81.2% in [12] (setting [15]). In addition, the figures for the “% T/C on day 5” value in assay [12] (setting [13]), in assay [12] (setting [14]) and in assay [12] (setting [15]) were 101.3%, 86.9% and 82.3%, respectively. For the same molecule, the “% T/C on day 7” value is on record as 102.8% in assay [12] (setting [13]), 78.6% in assay [12] (setting [14]) and 81.1% in assay [12] (setting [15]). Also, the “% T/C on day 9” value in [12] (setting [13]) amounted to 98.6%; in assay [12] (setting [14]), 73.2%; in [12] (setting [15]), 75.6%. Further, the “% T/C on day 12” value in assay [12] (setting [13]) came out at 90.5%; in assay [12] (setting [14]), 76.7%; in assay [12] (setting [15]) it was 69.6%. In addition, the “% T/C on day 14” value in [12] (setting [13]) is 83.8%; in assay [12] (setting [14]), 83.1%; in assay [12] (setting [15]), 60.7%.

Broadly, the IC50 is the concentration at which inhibition is half-maximal.

The values above are taken from US11590129B2, “Combination therapy with an antitumor alkaloid” (PHARMA MAR, S.A., priority 2010, dated 2023).
